Experimental data published in the supplement of paper PMC10307832.

Key:
Test in all cases: relative viability (nuclei count vs DMSO), 5 days (fraction); higher = more cells survive
[1] = compound: C1CC2=C(C1)C=C(C=C2)OC3=NC(=C4C(=N3)N(C=N4)CC5=CC=C(C=C5)C6=CC=CC=C6)N[C@@H](CC7=CC=CC=C7)CO [QS11] + CS(=O)(=O)CCNCc1ccc(-c2ccc3ncnc(Nc4ccc(OCc5cccc(F)c5)c(Cl)c4)c3c2)o1 [Lapatinib] (partner 2 µM)
Summary of the method: (§1)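 Lung cancer cell lines in 1536-well plates got either a single drug or a fixed anchor-drug dose together with five library-drug doses (not always all listed) in √10 steps, by pin tool, on the day after seeding. Nuclei were counted after 5 days, and relative viability is the treated-to-vehicle ratio of nuclei counts. Values are medians of duplicate plates.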

[2] = compound: C[As](C)SC[C@H](NC(=O)CC[C@H](N)C(=O)O)C(=O)NCC(=O)O [Darinaparsin] + CC(=O)Nc1cccc(-n2c(=O)n(C3CC3)c(=O)c3c(Nc4ccc(I)cc4F)n(C)c(=O)c(C)c32)c1 [Trametinib] (partner 0.02 µM)
Summary of the method: as §1

[3] = compound: C[As](C)SC[C@H](NC(=O)CC[C@H](N)C(=O)O)C(=O)NCC(=O)O [Darinaparsin] + CC(=O)c1c(C)c2cnc(Nc3ccc(N4CCNCC4)cn3)nc2n(C2CCCC2)c1=O [Palbociclib] (partner 0.5 µM)
Summary of the method: as §1

[4] = compound: C[As](C)SC[C@H](NC(=O)CC[C@H](N)C(=O)O)C(=O)NCC(=O)O [Darinaparsin] + C[C@@H](Oc1cc(-c2cnn(C3CCNCC3)c2)cnc1N)c1c(Cl)ccc(F)c1Cl [Crizotinib] (partner 1 µM)
Summary of the method: as §1

Cell Line | relative viability ([1]; first compound 0.08 µM) | relative viability ([1]; first compound 0.253 µM) | relative viability ([1]; first compound 0.8 µM) | relative viability ([1]; first compound 2.53 µM) | relative viability ([1]; first compound 8 µM) | relative viability ([2]; first compound 0.08 µM) | relative viability ([2]; first compound 0.8 µM) | relative viability ([2]; first compound 2.53 µM) | relative viability ([2]; first compound 8 µM) | relative viability ([3]; first compound 0.08 µM) | relative viability ([3]; first compound 0.8 µM) | relative viability ([3]; first compound 2.53 µM) | relative viability ([3]; first compound 8 µM) | relative viability ([4]; first compound 0.08 µM) | relative viability ([4]; first compound 0.8 µM) | relative viability ([4]; first compound 2.53 µM) | relative viability ([4]; first compound 8 µM)
BEN | 0.555 | 0.89 | 0.864 | 0.781 | 1.19 | 1.18 | 0.998 | 0.991 | 1.12 | 0.492 | 0.445 | 0.488 | 0.43 | 0.956 | 1.01 | 0.741 | 1.17
NCI-H1651 | 0.941 | 0.872 | 0.828 | 1.01 | 0.76 | 0.825 | 0.784 | 0.813 | 0.898 | 0.515 | 0.531 | 0.527 | 0.522 | 0.87 | 0.895 | 0.845 | 1.07
EKVX | 0.189 | 0.167 | – | 0.216 | 0.201 | 0.339 | 0.33 | 0.344 | 0.333 | 0.451 | 0.365 | 0.366 | 0.38 | 1.22 | 0.935 | 0.813 | 1.23
COR-L 105 | 0.38 | 0.363 | 0.343 | 0.412 | 0.396 | 0.473 | 0.456 | 0.427 | 0.45 | 0.456 | 0.373 | 0.397 | 0.382 | 0.745 | 0.687 | – | 0.866
NCI-H1650 | 0.746 | 0.643 | 0.673 | 0.731 | 0.708 | 0.915 | 0.49 | 0.593 | 0.636 | 0.377 | 0.321 | 0.325 | 0.375 | 1.14 | 0.98 | 0.795 | 1.17
HCC-15 | 0.874 | 0.952 | – | 0.883 | 0.748 | 0.409 | 0.321 | 0.27 | 0.415 | 0.639 | 0.773 | 0.723 | 0.882 | 0.931 | 0.743 | 0.784 | 1.06
SK-LU-1 | 0.704 | 0.868 | 0.963 | 0.803 | 0.838 | 0.625 | 0.401 | 0.382 | 0.521 | 0.381 | 0.338 | 0.339 | 0.347 | 1.15 | 1.06 | 0.669 | 0.946
RERF-LC-KJ | 0.588 | 0.877 | 0.577 | 0.77 | 0.882 | 0.933 | 0.933 | 0.93 | 0.817 | 1.13 | 1.11 | 1.02 | 1.08 | 1.01 | 0.925 | 0.791 | 0.96
